Read-outs that look alike come from different tables or passages of the source. Bounds are passed on as bounds.

The target in test [1] is T1, COX-2 (Homo sapiens, UniProt P35354).
T1 construct: Human blood that had been sampled with the use of heparin (19 units/ml) was used; from tissue; host or cells: human whole blood (heparinised), aspirin-pretreated, stimulated with lipopolysaccharide
T1 sequence (P35354 18-604): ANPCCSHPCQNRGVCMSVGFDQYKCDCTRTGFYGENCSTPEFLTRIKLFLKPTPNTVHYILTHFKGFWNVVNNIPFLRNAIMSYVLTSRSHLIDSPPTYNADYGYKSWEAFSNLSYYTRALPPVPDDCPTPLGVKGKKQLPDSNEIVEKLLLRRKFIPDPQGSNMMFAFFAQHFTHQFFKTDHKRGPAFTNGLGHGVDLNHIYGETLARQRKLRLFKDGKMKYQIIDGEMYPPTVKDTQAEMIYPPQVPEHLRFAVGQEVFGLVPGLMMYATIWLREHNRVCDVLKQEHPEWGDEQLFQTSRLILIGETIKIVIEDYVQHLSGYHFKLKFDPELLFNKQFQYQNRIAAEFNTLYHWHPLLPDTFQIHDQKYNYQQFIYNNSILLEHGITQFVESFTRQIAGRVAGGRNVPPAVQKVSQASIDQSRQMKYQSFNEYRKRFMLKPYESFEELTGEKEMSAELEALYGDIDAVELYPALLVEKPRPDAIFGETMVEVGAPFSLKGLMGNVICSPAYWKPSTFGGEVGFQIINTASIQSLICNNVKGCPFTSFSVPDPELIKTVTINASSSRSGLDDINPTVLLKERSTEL
As to the kind of experiment: Activity of inhibiting COX-2 in human blood (prostaglandin E2 after lipopolysaccharide). It counts as cell-based. To be noted: prostaglandin E2 production. The method, then:
Human blood that had been sampled with the use of heparin (19 units/ml) was used. Blood was fractionated to reaction tubes in amounts of 500 μl, aspirin (12 μg/ml) was added thereto, and the resultants were incubated at 37° C. for 6 hours. Thereafter, the test compound or solvent, and lipopolysaccharide (10 μg/ml) were added, and the reaction was allowed to proceed for 18 hours. After the completion of the reaction, the supernatant (blood plasma) was recovered via centrifugation at 4° C., and the amount of prostaglandin E2 in the plasma was quantified using a kit (514010, Cayman Chemical). Dimethyl sulfoxide (DMSO) was used as a solvent for the test compound. The amount of prostaglandin E2 produced via the addition of lipopolysaccharide was designated as 100%, and the concentration of the test compound that inhibits 50% of such reaction was represented by the IC50 value.

Test [2] concerns the target T2, COX-1 (Homo sapiens, UniProt P23219).
T2 construct: Human blood that had been sampled with the use of heparin (19 units/ml) was used; from tissue; host or cells: human whole blood (heparinised)
As to the kind of experiment: Activity of inhibiting COX-1 in human blood (thromboxane B2 after ionomycin). It is filed as cell-based. To be noted: thromboxane B2 production. As to the method: Human blood that had been sampled with the use of heparin (19 units/ml) was used. Blood was fractionated to reaction tubes in amounts of 500 μl, the test compound or solvent was added thereto, and the resultants were incubated at 37° C. for 60 minutes. Dimethyl sulfoxide (DMSO) was used as a solvent for the test compound. Thereafter, ionomycin (30 nM) was added, and the reaction was allowed to proceed for 30 minutes. After the completion of the reaction, the supernatant (blood plasma) was recovered via centrifugation at 4° C., and the amount of thromboxane B2 in the plasma was quantified using a kit (519031, Cayman Chemical). The amount of thromboxane B2 produced via the addition of ionomycin was designated as 100%, and the concentration of the test compound that inhibits 50% of such reaction was represented by the IC50 value.

Test [3] concerns ddY mice. As to the kind of experiment: Acetic acid writhing test in mice (analgesic effects). It counts as in vivo. To be noted: Mus musculus. The method, then: ddY mice were grown for at least 16 hours under fasting conditions while free water intake was allowed, and a solution of the test compound or a solvent was orally administered thereto (0.1 ml/10 g). As a solvent for a solution of the test compound, dimethyl sulfoxide (DMSO):Tween 80:27% hydroxypropyl-P-cyclodextrin (hereafter abbreviated to “HP-β-CD”) (1:1:8) or 27% HP-β-CD was used. A solution of 0.6% acetic acid (0.1 ml/10 g) was administered intraperitoneally 45 minutes after administration to induce a writhing reaction (i.e., a movement of stretching or arching the body). The number of the writhing reactions that had occurred for the period from 10 minutes after administration of the acetic acid solution to 10 minutes thereafter was counted, and the number of times was designated as an indicator of pain. The number of times of reactions in the group to which a solvent had been administered was designated as 100%, and the concentration of the test compound that had inhibited 50% of such reaction was designated as the ED50 value.
The compound of Reference Example 78 is disclosed in the claims of JP Patent Publication (kohyo) No. 2006-517535 A, the compounds of Reference Examples 93 and 199 are disclosed in the claims of JP Patent No. 3003148, and the compound of Reference Example 103 is disclosed in the claims of JP Patent Publication (kohyo) No. 2006-514095 A. Thus, these compounds were compared with the compounds of the present invention having similar structures in terms of analgesic effects with oral administration (Table 4) or subcutaneous administration (Table 5). Dimethyl sulfoxide (DMSO):Tween 80:27% HP-β-CD (1:1:8) or 27% HP-β-CD was used as a solvent for the test compound.
In general terms: Writhing tests count abdominal constrictions after an irritant is injected.

[4] abbreviates: oral administration 45 minutes before 0.6% acetic acid i.p., 50% inhibition of writhing reactions, read-out: ED50 (mg/kg)[90% confidence limit].
Where [5] appears, read: sc, Table 5, subcutaneous administration, read-out: ED50 (mg/kg) [90% confidence limit].

T2 sequence (P23219 24-599): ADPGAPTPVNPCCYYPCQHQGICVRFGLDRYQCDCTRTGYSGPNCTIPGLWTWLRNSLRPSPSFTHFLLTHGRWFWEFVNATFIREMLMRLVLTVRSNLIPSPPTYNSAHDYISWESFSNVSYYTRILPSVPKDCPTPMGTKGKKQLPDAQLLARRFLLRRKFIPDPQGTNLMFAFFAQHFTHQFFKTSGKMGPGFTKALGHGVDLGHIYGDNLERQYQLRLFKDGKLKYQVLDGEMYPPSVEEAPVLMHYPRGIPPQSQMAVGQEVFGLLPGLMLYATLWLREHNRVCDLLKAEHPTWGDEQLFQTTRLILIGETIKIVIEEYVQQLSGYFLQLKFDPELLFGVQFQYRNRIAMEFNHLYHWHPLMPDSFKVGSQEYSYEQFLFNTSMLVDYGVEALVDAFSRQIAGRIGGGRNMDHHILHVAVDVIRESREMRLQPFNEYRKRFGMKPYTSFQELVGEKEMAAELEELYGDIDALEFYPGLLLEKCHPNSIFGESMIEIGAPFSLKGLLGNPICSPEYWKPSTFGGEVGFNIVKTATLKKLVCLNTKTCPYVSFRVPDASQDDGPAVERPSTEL

`COc1ccc(-c2nc(C3(C)CCN(C(=O)N(C)O)CC3)sc2-c2ccc(OC)cc2)cc1` [Example 55, 4-(4,5-Bis(4-methoxyphenyl)thiazol-2-yl)-1-(N-hydroxy-N-methylcarbamoyl)-4-methylpiperidine]: the IC50 in test [1] was above 10 µM; in test [2] it was below 0.1 µM.
For `COc1ccc(-c2cc(C3CCN(C(=O)N(C)O)CC3)[nH]c2-c2ccc(OC)cc2)cc1` [Example 34, 4-(4,5-Bis(4-methoxyphenyl)-1H-pyrrol-2-yl)-1-(N-hydroxy-N-methylcarbamoyl)piperidine], in that order: above 10 µM and below 0.1 µM.
Turning to `CN(O)C(=O)N1CCC(c2nc(-c3ccc(F)cc3)c(-c3ccccc3)o2)CC1` [Example 13, 4-(4-(4-Fluorophenyl)-5-phenyloxazol-2-yl)-1-(N-hydroxy-N-methylcarbamoyl)piperidine], the ED50 in test [3] (setting [4]) came out at 2.62 mg/kg.
Regarding `COc1ccc(-c2nc(C3CCN(C(=O)N(O)C4CCCCC4)CC3)oc2-c2ccc(OC)cc2)cc1` [Example 16, 4-(4,5-Bis(4-methoxyphenyl)oxazol-2-yl)-1-(N-cyclohexyl-N-hydroxycarbamoyl)piperidine], the 50% inhibitory concentration (IC50) is above 10 µM in test [1] and below 0.1 µM in test [2].
`COc1ccc(-c2nc(C3CCN(C(=O)N(O)C(C)C)CC3)sc2-c2ccc(OC)cc2)cc1` [Example 60, 4-(4,5-Bis(4-methoxyphenyl)thiazol-2-yl)-1-(N-hydroxy-N-isopropylcarbamoyl)piperidine]: the values for the IC50 in test [1] and in test [2] were above 10 µM and below 0.1 µM, respectively.
For `COc1ccc(-c2cc(C3CCN(C(=O)N(C)O)CC3)sc2-c2ccc(OC)cc2)cc1` [Example 39, 4-(4,5-Bis(4-methoxyphenyl)thiophen-2-yl)-1-(N-hydroxy-N-methylcarbamoyl)piperidine], in that order: above 10 µM and below 0.1 µM.
In the case of `COc1ccc(-n2nc(C3CCN(C(=O)N(C)O)CC3)cc2-c2cccnc2OC)cc1` [Example 67, 4-(1-(4-Methoxyphenyl)-5-(2-methoxypyridin-3-yl)-1H-pyrazol-3-yl)-1-(N-hydroxy-N-methylcarbamoyl)piperidine], the ED50 in test [3] (setting [4]) turned out to be 2.51 mg/kg.
For the compound `COc1ccc(-c2nc(C3CCN(C(=O)N(C)OC)CC3)oc2-c2ccc(OC)cc2)cc1` [Example 24, 4-(4,5-Bis(4-methoxyphenyl)oxazol-2-yl)-1-(N-methoxy-N-methylcarbamoyl)piperidine], the IC50 in test [1] is above 10 µM; in test [2] it was below 0.1 µM.
On to `COc1ccc(-c2nc(C3(c4ccccc4)CCN(C(=O)N(C)O)CC3)oc2-c2ccc(OC)cc2)cc1` [Example 48, 4-(4,5-Bis(4-methoxyphenyl)oxazol-2-yl)-(N-hydroxy-N-methylcarbamoyl)-4-phenylpiperidine], for which the concentration for half-maximal inhibition (IC50) in test [1] is above 10 µM; in test [2], below 0.1 µM.
The matching figures for `COc1ccc(-c2nc(C3CCN(C(=O)N(O)C(C)C)CC3)oc2-c2ccc(OC)cc2)cc1` [Example 15, 4-(4,5-Bis(4-methoxyphenyl)oxazol-2-yl)-1-(N-isopropyl-N-hydroxycarbamoyl)piperidine]: above 10 µM and below 0.1 µM.
On to `COc1ccc(-c2nc(N3CCN(C(=O)N(C)O)CC3)sc2-c2ccc(OC)cc2)cc1` [Example 57, 4-(4,5-Bis(4-methoxyphenyl)thiazol-2-yl)-1-(N-hydroxy-N-methylcarbamoyl)piperazine], for which the ED50 in test [3] (setting [4]) amounted to 9.79 mg/kg.
Consider `COc1ccc(-c2nc(C3CCNCC3)sc2-c2ccc(OC)cc2)cc1` [Reference Example 93, 4-(4,5-Bis(4-methoxyphenyl)thiazol-2-yl)piperidine, reference compound], for which the ED50 in test [3] (setting [5]) is above 100 mg/kg.
In the case of `COc1ccc(-c2nc(C3CCNCC3)oc2-c2ccc(OC)cc2)cc1` [Reference Example 78, 4-(4,5-Bis(4-methoxyphenyl)oxazol-2-yl)piperidine, reference compound], the ED50 in test [3] (Table 4, oral administration, comparison with similar known compound, read-out: ED50 (mg/kg) [90% confidence limit]) is above 100 mg/kg.
On to `COc1ccc(-c2cc(C3CCN(C(=O)N(C)O)CC3)oc2-c2ccc(OC)cc2)cc1` [Example 38, 4-(4,5-bis(4-methoxyphenyl)furan-2-yl)-1-(N-hydroxy-N-methylcarbamoyl)piperidine], for which the values for the concentration for half-maximal inhibition (IC50) in test [1] and in test [2] were above 10 µM and below 0.1 µM, respectively.
Take `COc1ccc(-c2nc(C3CCN(C(=O)N(C)O)CC3)oc2-c2ccc(OCCO)cc2)cc1` [Example 77]: the IC50 is above 10 µM in test [1] and below 0.1 µM in test [2].
Consider `COc1ccc(-c2nc(C3(C)CCN(C(=O)N(C)O)CC3)oc2-c2ccc(OC)cc2)cc1` [Example 42, 4-(4,5-Bis(4-methoxyphenyl)oxazol-2-yl)-1-(N-hydroxy-N-methylcarbamoyl)-4-methylpiperidine], for which the IC50 in test [1] is above 10 µM; in test [2] it was below 0.1 µM.
For `COc1ccc(-c2nc(C3CCN(C(=O)N(C)OC)CC3)sc2-c2ccc(OC)cc2)cc1` [Example 61, 4-(4,5-Bis(4-methoxyphenyl)thiazol-2-yl)-1-(N-methoxy-N-methylcarbamoyl)piperidine], in that order: above 10 µM and below 0.1 µM.
Take `COc1ccc(-c2cc(C3CCNCC3)nn2-c2ccc(OC)cc2)cc1` [Reference Example 103, 4-(1,5-Bis(4-methoxyphenyl)-1H-pyrazol-3-yl)piperidine, reference compound]: the ED50 in test [3] (setting [5]) was above 100 mg/kg.
`CCCC1(c2nc(-c3ccc(OC)cc3)c(-c3ccc(OC)cc3)o2)CCN(C(=O)N(C)O)CC1` [Example 74, 4-(1,5-Bis(4-methoxyphenyl)oxazol-2-yl)-4-propyl-1-(N-hydroxy-N-methylcarbamoyl)piperidine]: the figures for the IC50 in test [1] and in test [2] were above 10 µM and below 0.1 µM, respectively.
For the compound `CNC(=O)N1CCC(c2nc(-c3ccc(OC)cc3)c(-c3ccc(OC)cc3)s2)CC1` [Reference Example1 199, reference compound], in test [3] (setting [5]), the ED50 is 34.4 mg/kg.
`COc1ccc(-c2cc(C3CC4CCC(C3)N4C(=O)N(C)O)nn2-c2ccc(OC)cc2)cc1` (stereo not shown) [Example 68, 3-(1,5-Bis(4-methoxyphenyl)-1H-pyrazol-3-yl)-8-(N-hydroxy-N-methylcarbamoyl)-8-azabicyclo[3.2.1]octane]: the IC50 was above 10 µM in test [1] and below 0.1 µM in test [2].
With `CCN(O)C(=O)N1CCC(c2nc(-c3ccc(OC)cc3)c(-c3ccc(OC)cc3)o2)CC1` [Example 19, 4-(4,5-Bis(4-methoxyphenyl)oxazol-2-yl)-1-(N-hydroxy-N-ethylcarbamoyl)piperidine], the results for the IC50 in test [1] and in test [2] were above 10 µM and below 0.1 µM, respectively.

Usually IC50 stands for the concentration that gives 50% inhibition. A higher IC50 goes with weaker potency.
